Reference: ChEMBL document CHEMBL6078648, “Prioritization of Eleven-Nineteen-Leukemia Inhibitors as Orally Available Drug Candidates for Acute Myeloid Leukemia” (J Med Chem, 2024)
Active and inactive are the calls of the source. No cut-off for these calls is given here.

Experiments:
[1] = tested on: Jurkat; experiment: Antiproliferative activity against human Jurkat cells assessed as reduction in cell proliferation at 1 uM measured upto 2 weeks; type: functional, cell-based
[2] = tested on: MV4-11; experiment: Cytotoxicity against human MV4-11 cells assessed as cell viability incubated for 8 days by CCK-8 assay; type: functional; conditions: for CC50: MV4-11, 192 h, time 8 day; for Activity: time 8.0 day
[3] = tested on: MOLM-13; experiment: Cytotoxicity against human MOLM-13 cells assessed as cell viability incubated for 8 days by CCK-8 assay; type: functional; conditions: for CC50: MOLM-13, 192 h, time 8 day; for Activity: time 8.0 day
[4] = tested on: Jurkat; experiment: Cytotoxicity against human Jurkat cells assessed as cell viability incubated for 8 days by CCK-8 assay; type: functional; conditions: 192 h, time 8 day
[5] = Cytotoxicity against human HEK293T cells assessed as cell viability incubated for 8 days by CCK-8 assay; type: toxicity, cell-based, HEK-293T; conditions: time 8 day
[6] = molecular target: T1, Protein ENL (Homo sapiens) (UniProt Q03111); experiment: Binding affinity to ENL YEATS domain (unknown origin) expressed in HEK293 cells incubated for 2 hrs by NanoBRET assay; type: cell-based
T1 sequence (whole entry): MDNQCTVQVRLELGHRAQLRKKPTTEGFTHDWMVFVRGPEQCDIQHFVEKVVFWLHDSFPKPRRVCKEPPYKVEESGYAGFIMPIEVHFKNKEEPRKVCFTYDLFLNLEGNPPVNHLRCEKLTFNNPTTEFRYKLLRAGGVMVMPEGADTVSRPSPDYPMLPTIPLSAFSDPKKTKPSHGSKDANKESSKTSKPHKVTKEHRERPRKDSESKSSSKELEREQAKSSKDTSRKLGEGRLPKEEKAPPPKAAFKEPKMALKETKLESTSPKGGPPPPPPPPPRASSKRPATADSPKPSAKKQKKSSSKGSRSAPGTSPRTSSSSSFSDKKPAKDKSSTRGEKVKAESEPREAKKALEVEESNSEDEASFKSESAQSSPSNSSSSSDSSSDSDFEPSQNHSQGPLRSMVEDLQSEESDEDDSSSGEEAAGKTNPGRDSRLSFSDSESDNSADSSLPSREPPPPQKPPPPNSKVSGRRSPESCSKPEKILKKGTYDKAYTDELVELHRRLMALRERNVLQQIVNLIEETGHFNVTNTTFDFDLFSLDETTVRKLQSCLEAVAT

[7] = Metabolic stability in human plasma assessed as parent compound remaining measured after 1 hrs by HPLC-MS/MS analysis; type: ADME, cell-free
[8] = Metabolic stability in human plasma assessed as parent compound remaining measured after 2 hrs by HPLC-MS/MS analysis; type: ADME, cell-free
[9] = tested on: MOLM-13; experiment: Cytotoxicity against human MOLM-13 cells assessed as cell viability upto 100 uM incubated for 72 hrs by CCK-8 assay; type: functional, cell-based
[10] = tested on: MV4-11; experiment: Cytotoxicity against human MV4-11 cells assessed as cell viability upto 100 uM incubated for 72 hrs by CCK-8 assay; type: functional, cell-based
[11] = Metabolic stability in mouse liver microsome assessed as half life; type: ADME; conditions: liver microsomes
[12] = molecular target: T1, Protein ENL (Homo sapiens); experiment: Inhibition of ENL YEATS domain (unknown origin) (1 to 148 residues) preincubated with compound for 1 hr followed by alpha-bead addition and measured after 30 mins under dark condition by Alphascreen assay; conditions: time 90.0 min
[13] = tested on: MOLM-13; experiment: Downregulation of MEISI expression in human MOLM-13 cells at 1 uM measured for 72 hrs by qRT-PCR analysis; type: functional, cell-based
[14] = tested on: MOLM-13; experiment: Downregulation of MYC expression in human MOLM-13 cells at 1 uM measured for 72 hrs by qRT-PCR analysis; type: functional, cell-based
[15] = tested on: MV4-11; experiment: Downregulation of MEISI expression in human MV4-11 cells at 1 uM measured for 72 hrs by qRT-PCR analysis; type: functional, cell-based
[16] = molecular target: T1, Protein ENL (Homo sapiens); experiment: Binding affinity to ENL in human MV4-11 cells assessed as increase in protein thermal stabilization at 10 uM incubated for 3 to 6 hrs by CETSA analysis; type: cell-based; conditions: time 3-6 hrs
[17] = Toxicity in NSG mouse implanted with human MOLM-13 assessed as tolerability at 200 mg/kg, po qd measured every 2 to 3 days; type: organism-based; conditions: in vivo, time 2-3 day
[18] = tested on: MOLM-13; experiment: Downregulation of HOXA10 expression in human MOLM-13 cells at 1 uM measured for 72 hrs by qRT-PCR analysis; type: functional, cell-based
[19] = tested on: MOLM-13; experiment: Downregulation of MYB expression in human MOLM-13 cells at 1 uM measured for 72 hrs by qRT-PCR analysis; type: functional, cell-based
[20] = Toxicity in NSG mouse implanted with human MOLM-13 assessed as body weight loss at 400 mg/kg, po qd measured every 2 to 3 days and measured at day 15; type: organism-based; conditions: in vivo, 360 h, time 15 day
[21] = tested on: MV4-11; experiment: Downregulation of MYC expression in human MV4-11 cells at 1 uM measured for 72 hrs by qRT-PCR analysis; type: functional, cell-based
[22] = tested on: MV4-11; experiment: Downregulation of MYB expression in human MV4-11 cells at 1 uM measured for 72 hrs by qRT-PCR analysis; type: functional, cell-based
[23] = tested on: MV4-11; experiment: Induction of cell cycle arrest in human MV4-11 cells assessed as increase in accumulation of cells at G1 phase at 1 to 10 uM incubated for 72 hrs by PI staining based flow cytometric analysis; type: functional; conditions: dose 1-10 µM
[24] = tested on: HEK-293T; experiment: Cytotoxicity against HEK293T cells assessed as reduction in cell viability at 16 uM incubated for 8 days by CCK-8 assay; type: toxicity, cell-based; conditions: human, 192 h, time 8 day
[25] = tested on: Jurkat; experiment: Cytotoxicity against human Jurkat cells assessed as cell viability incubated for 72 hrs by CCK-8 assay; type: functional
[26] = tested on: MOLM-13; experiment: Induction of cell cycle arrest in human MOLM-13 cells assessed as increase in accumulation of cells at G1 phase at 1 to 10 uM incubated for 72 hrs by PI staining based flow cytometric analysis; type: functional; conditions: dose 1-10 µM
[27] = tested on: MOLM-13; experiment: Antitumor activity against human MOLM-13 cells xenografted in NSG mouse assessed as reduction in tumor growth at 200 mg/kg, po qd measured after 13 days; type: functional, organism-based; conditions: time 13.0 day
[28] = tested on: MOLM-13; experiment: Antitumor activity against human MOLM-13 cells xenografted in NSG mouse assessed as reduction in tumor burden at 400 mg/kg, po qd measured after 13 days; type: functional, organism-based; conditions: time 13.0 day
[29] = Half life in CD-1 mouse at 20 mg/kg, iv measured upto 24 hrs by HPLC-MS/MS analysis; type: ADME, organism-based; conditions: in vivo
[30] = Toxicity in NSG mouse implanted with human MOLM-13 assessed as animal survival at 400 mg/kg, po qd measured every 2 to 3 days and measured at day 15; type: organism-based; conditions: in vivo, 360 h, time 15 day
[31] = tested on: MOLM-13; experiment: Downregulation of HOXA9 expression in human MOLM-13 cells at 1 uM measured for 72 hrs by qRT-PCR analysis; type: functional, cell-based
[32] = tested on: MV4-11; experiment: Downregulation of HOXA10 expression in human MV4-11 cells at 1 uM measured for 72 hrs by qRT-PCR analysis; type: functional, cell-based
[33] = Toxicity in NSG mouse implanted with human MOLM-13 assessed as body weight loss at 200 mg/kg, po qd measured every 2 to 3 days; type: organism-based; conditions: in vivo, time 2-3 day
[34] = molecular target: T1, Protein ENL (Homo sapiens); experiment: Binding affinity to ENL in human MOLM-13 cells assessed as increase in protein thermal stabilization at 10 uM incubated for 3 to 6 hrs by CETSA analysis; type: cell-based; conditions: time 3-6 hrs
[35] = tested on: MV4-11; experiment: Downregulation of HOXA9 expression in human MV4-11 cells at 1 uM measured for 72 hrs by qRT-PCR analysis; type: functional, cell-based
[36] = tested on: Jurkat; experiment: Cytotoxicity against human Jurkat cells assessed as reduction in cell viability at 10 uM incubated for 8 days by CCK-8 assay; type: functional, cell-based; conditions: time 8.0 day
[37] = tested on: HEK-293T; experiment: Cytotoxicity against HEK293T cells assessed as reduction in cell viability at 10 uM incubated for 8 days by CCK-8 assay; type: toxicity, cell-based; conditions: human, 192 h, time 8 day
[38] = tested on: Jurkat; experiment: Cytotoxicity against human Jurkat cells assessed as reduction in cell viability at 16 uM incubated for 8 days by CCK-8 assay; type: functional, cell-based; conditions: time 8.0 day
[39] = molecular target: T1, Protein ENL (Homo sapiens); experiment: Binding affinity to ENL YEATS domain (unknown origin) (1 to 148 residues) expressed in HEK293 cells assessed as […] incubated for 2 hrs by NanoBRET assay; type: cell-based; conditions: dose <= 100.0 µM
[40] = Toxicity in NSG mouse implanted with human MOLM-13 assessed as body weight loss at 200 mg/kg, po qd; type: organism-based; conditions: in vivo
[41] = Toxicity in NSG mouse implanted with human MOLM-13 assessed as tolerability at 200 mg/kg, po qd; type: organism-based; conditions: in vivo
[42] = tested on: MOLM-13; experiment: Antitumor activity against human MOLM-13 cells xenografted in NSG mouse at 400 mg/kg, po qd measured from 10 to 15 days; type: functional, organism-based; conditions: time 10-15 day

SMILES: CC(C)C1CCN1Cc1cc2cnc(NC(=O)c3ccc4nncn4c3)cc2[nH]1 (stereo unspecified)
- Activity [1]: inactive
- CC50 [2]: < 4 µM
- CC50 [3]: < 4 µM
- CC50 [4]: > 64 µM
- CC50 at 192 h [5]: > 64 µM

SMILES: O=C(CCC1=[N+]2C(=Cc3ccc(-c4ccc[nH]4)n3[B-]2(F)F)C=C1)NCCCCSc1ccc(CNC(=O)c2ccc3nncn3c2)cc1
- Activity [6]: Active

SMILES: O=C(Nc1cc2[nH]c(CN3CCC3C3CC3)cc2cn1)c1ccc2nncn2c1 (stereo unspecified)
- Activity [1]: inactive
- CC50 at 192 h [5]: > 64 µM
- Stability [7]: > 60%

SMILES: O=C(NCc1cccc(CN2CCC2)c1)c1ccc2nncn2c1
- Stability [8]: 94.94%
- Activity [9]: Active
- Activity [2]: inactive
- Activity [3]: inactive
- Activity [10]: Active
- Stability [7]: > 60%

SMILES: O=C(NC1CCC1)c1ccc2nc(-c3cccc(NS(=O)(=O)NCCN4CCCCC4)c3)cn2c1
- half-life [11]: 9.3 min

SMILES: CSc1ccc(CNC(=O)c2ccc3nncn3c2)cc1
- Activity [9]: Active
- Activity [2]: inactive
- Activity [3]: inactive
- Activity [10]: Active

SMILES: O=C(NCc1ccc(CNc2ncc(F)cn2)cc1)c1ccc2nncn2c1
- Activity [9]: Active
- Activity [2]: inactive
- Activity [3]: inactive
- Activity [10]: Active

SMILES: O=C(NCc1ccc(CN2CCC2)cc1)c1ccc2nncn2c1
- inhibition [12]: Active

SMILES: CC(C)C1CCN1Cc1ccc(CNC(=O)c2ccc3nncn3c2)cc1 (stereo unspecified)
- Stability [8]: 95.58%
- Activity [13]: Active
- Activity [14]: Active
- Activity [15]: Active
- Activity [16]: Active
- Activity [17]: Non-toxic
- Activity [1]: inactive
- Activity [9]: Active
- Activity [18]: Active
- Activity [19]: Active
- Activity [20]: Non-toxic
- Activity [21]: Active
- Activity [22]: Active
- Activity [23]: Active
- Activity [24]: Non-toxic
- CC50 [25]: > 64 µM
- Activity [26]: Active
- Activity [27]: inactive
- Activity [28]: Active
- half-life [29]: 1.85 h
- Activity [30]: Non-toxic
- Activity [31]: Active
- Activity [32]: Active
- Activity [33]: Non-toxic
- Activity [34]: Active
- Activity [35]: Active
- Activity [36]: Active
- Activity [37]: Non-toxic
- Activity [10]: Active
- Stability [7]: > 60%
- Activity [38]: Active

SMILES: O=C(NCc1ccc(CN2CCCCC2)cc1)c1ccc2nncn2c1
- inhibition [12]: Active

SMILES: O=C(NCc1ccc(CN2CCOCC2)cc1)c1ccc2nncn2c1
- inhibition [12]: Active

SMILES: CC1CCN1Cc1ccc(CNC(=O)c2ccc3nncn3c2)cc1 (stereo unspecified)
- Activity [9]: Active
- Activity [2]: inactive
- Activity [3]: inactive
- Activity [10]: Active

SMILES: O=C(CCC1=[N+]2C(=Cc3ccc(-c4ccc[nH]4)n3[B-]2(F)F)C=C1)NCCCC(=O)Nc1cccc(-c2cn3cc(C(=O)NC4CCC4)ccc3n2)c1
- Activity [39]: Dose-dependent-effect

SMILES: C[C@H]1CCCN1Cc1cc2cnc(NC(=O)c3ccc4nncn4c3)cc2[nH]1
- Activity [1]: inactive
- CC50 at 192 h [5]: > 64 µM
- Stability [7]: > 60%

SMILES: CC(C)[C@H]1CCN1Cc1cc2cnc(NC(=O)c3ccc4nncn4c3)cc2[nH]1
- Stability [8]: 94.54%
- Activity [13]: Active
- Activity [14]: Active
- Activity [15]: Active
- Activity [16]: Active
- Activity [17]: Non-toxic
- Activity [1]: inactive
- Activity [18]: Active
- Activity [19]: Active
- CC50 [2]: 0.81 µM
- CC50 [3]: 1.25 µM
- Activity [21]: Active
- Activity [22]: Active
- Activity [40]: Non-toxic
- Activity [23]: Active
- Activity [26]: Active
- Activity [31]: Active
- Activity [32]: Active
- Activity [33]: Non-toxic
- Activity [34]: Active
- Activity [35]: Active
- CC50 [4]: > 64 µM
- Activity [41]: Non-toxic
- Activity [42]: Active
- CC50 at 192 h [5]: > 64 µM
